assay: Multi-compound pharmacokinetics of ZJTSD in rat serum, semi-quantitative UPLC-Q/TOF-MS (peak area ratio versus time, non-compartmental); details: male, Sprague-Dawley, rat, serum (hepatic portal vein blood), po, 1 mL/100 g body weight
Protocol: Thirty male Sprague–Dawley rats (200 ± 20 g) were purchased from the Nanjing Qinglongshan Experimental Animal Center (Nanjing, China). […] All rats were divided randomly into two groups: ZJTSD-dosed group (n = 27) and control group (n = 3). The ZJTSD-dosed group was given the ZJTSD solution by gavage (i.g.) at a dosage of 1 mL/100 g body weight of rats, and the control group was given 0.9% normal saline at the same dose, twice a day for a week. After the last administration, the blood was collected from the hepatic portal vein at 15 min, 30 min, 1 h, 2 h, 4 h, 6 h, 8 h, 12 h, and 24 h, and 3 rats were taken at each time point.
The blood samples of rats were centrifuged at 4,000 rpm for 10 min to obtain the serum. The serum sample (1 mL) was processed with a 3-fold volume using methanol for protein precipitation, with epicoprostanol serving as the internal standard (digoxin and clarithromycin). After vortexing for 3 min, the mixture was centrifuged at 18,000 rpm for 10 min. Subsequently, the supernatant was evaporated at 45°C using a vacuum concentrator. After evaporating the solvent, 150 μL of methanol/water (1:1, v/v) was added, vortexed, sonicated, and then centrifuged at 18,000 rpm for 10 min at 4°C. The resulting supernatant was used for further analysis.
Liquid chromatographic separation was performed using an AB SCIEX LC™ 2.0 system (AB SCIEX, United States) fitted with an Acquity UPLC BEH C18 column (100 mm × 2.1 mm, 1.7 μm; Ireland). The mobile phases in negative and positive ion modes consisted of 0.1% FA aqueous solution (A) and acetonitrile containing 0.1% FA (B). The program of the elution gradient was set as follows: 0∼5 min, 2%∼35 %B; 5∼7 min, 35%∼50%; 7∼10 min, 50%∼70%; 10∼15 min, 70%∼90 %B; 15∼18 min, 90%∼90 %B; 18∼18.5 min, 90%∼2 %B; and 18.5∼20 min, 2%∼2 %B. The injection volume was 3 µL. The flow rate and the column temperature were set at 0.3 mL/min and 40°C, respectively.
The mass spectrometry analysis was performed on a SCIEX ZenoTOF™ 7600 system (AB SCIEX, United States), which was calibrated in the high-sensitivity mode for every 10 samples. Spectra were acquired in the TOF/MS-IDA-TOF MS/MS mode with the ESI source operating in positive and negative ion modes. MS parameters were set as follows: ionization source, ESI; spray voltage, 5,500 kV/–4,500 kV; collision energy, 40 V/–40 V; declustering potential, 80 V/–80 V; ion source temperature, 550°C; and scan range, 100–1250 m/z. Data acquisition and processing were performed using SCIEX OS 2.2 and PeakView 2.2.
A semi-quantitative method was adopted based on the correction peak area versus time ([Wang et al., 2011]; [Lin et al., 2019]). The mean serum time-course profile of pharmacokinetics based on the peak area ratio versus time was plotted using Origin 2018. The kinetic analysis of the peak area ratio (×1,000)–time curve was calculated using Phoenix WinNonlin 8.1 (Phoenix, American) software and illustrated.

Row | Structure (SMILES) | MRT last | Tmax | MRT
1 | O=C1c2ccccc2C(=O)c2cc(CO)c(O)cc21 [P15, 2-Hydroxy-3-hydroxymethylanthraquinone] | 4.81 ± 0.31 h | 1.67 ± 2.02 h | 
2 | COc1c(O)ccc2c1C(=O)c1ccccc1C2=O [P14, 2-Hydroxy-1-methoxyanthraquinone] | 4.24 ± 0.57 h | 0.67 ± 0.29 h | 
3 | O=C(O)C=Cc1ccc(O)cc1 [P37, p-Coumaric acid] | 3.97 ± 0.59 h | 1.58 ± 2.1 h | 
4 | O=C1c2cccc(O)c2C(=O)c2c(O)cc(CO)cc21 [P17, Aloe-emodin] | 5.2 ± 3.03 h | 4.17 ± 3.75 h | 
5 | CCCCCCCCCCCCCCCCOC[C@@H](O)COP(=O)([O-])OCC[N+](C)(C)C [P44, 1-O-Hexadecyl-sn-glycero-3-phosphocholine] | 11.9 ± 0.91 h | 0.58 ± 0.38 h | 

The next lines start with the values.

Row | MRT last | Tmax | MRT | Structure (SMILES)
6 | 12.4 ± 0.14 h | 1.08 ± 0.88 h |  | N[C@@H](Cc1c[nH]c2ccccc12)C(=O)O [P23, Tryptophan]
7 | 4.36 ± 1.52 h | 0.5 h |  | COc1cc2ccc(=O)oc2cc1O [P38, Scopoletin]
8 | 9.56 ± 1.76 h | 3.33 ± 1.16 h | 9.56 h | O=C(O)CC(O)(CC(=O)O)C(=O)O [P40, Citric acid]
9 | 4.27 ± 0.55 h | 2.5 ± 3.04 h |  | COc1c(O)c(C)cc2c1C(=O)c1ccc(O)cc1C2=O [P21, 2,6-Dihydroxy-1-methoxy-3-methylanthraquinone]
10 | 10.8 ± 0.64 h | 6.67 ± 4.62 h |  | C[N+](C)(C)CC(=O)O [P35, Betaine]
11 | 3.43 ± 0.76 h | 0.67 ± 0.29 h |  | Cc1cc(=O)c2c(C)cc(O)cc2o1 [P1, 2,5-Dimethyl-7-hydroxychromone]
12 | 3.45 ± 0.58 h | 0.67 ± 0.29 h |  | Cc1cc(O)cc2oc(CC(C)O)cc(=O)c12 (centres unmarked) [P2, 7-Hydroxy-2-(2-hydroxypropyl)-5-methylchromen-4-one]
13 | 4.8 ± 0.38 h | 1.83 ± 1.89 h |  | COc1c(-c2ccccc2)oc2cc(O)cc(O)c2c1=O [P3, 3-Methoxy-5,7-dihydroxyflavone]
14 | 12.5 ± 1.36 h | 2.17 ± 3.32 h |  | CSCC[C@H](N)C(=O)O [P25, L-Methionine]
15 | 12.1 ± 0.02 h | 4.75 ± 4.02 h |  | COc1cc(C)c2c(=O)cc(C)oc2c1 [P6, 2,5-Dimethyl-7-methoxychromone]

same assay, conditions: male, Sprague-Dawley, rat, serum (hepatic portal vein blood), po, 1 mL/100 g body weight, elimination half-life (t1/2), rat hepatic portal vein serum after oral ZJTSD; semi-quantitative peak area ratio

Row | half-life | Structure (SMILES)
16 | 21 h | O=C(O)CC(O)(CC(=O)O)C(=O)O [P40, Citric acid]

same assay, conditions: male, Sprague-Dawley, rat, serum (hepatic portal vein blood), po, 1 mL/100 g body weight, t1/2, metabolites of ZJTSD in rat serum; mean±SD, n=3

Row | half-life | Structure (SMILES)
17 | 7.01 ± 2.29 h | O=C(CCc1ccc(O)cc1)c1ccc(O)cc1O [M11]
18 | 5.43 ± 2.61 h | Cc1cc(O)c2c(c1)C(=O)c1ccccc1C2=O [M63]
19 | 10.8 ± 4.71 h | CC1CCC2(C(=O)O)CCC3(C)C(=CCC4C5(C=O)CC(O)C(O)C(C)(C)C5CCC43C)C2C1(C)O (centres unmarked) [M77]

same assay, conditions: male, Sprague-Dawley, rat, serum (hepatic portal vein blood), po, 1 mL/100 g body weight, t1/2, prototype compounds of ZJTSD absorbed into rat serum; mean±SD, n=3

Row | Structure (SMILES) | half-life
20 | COc1c(O)ccc2c1C(=O)c1ccccc1C2=O [P14, 2-Hydroxy-1-methoxyanthraquinone] | 3.5 ± 2.06 h
21 | O=C(O)C=Cc1ccc(O)cc1 [P37, p-Coumaric acid] | 3.23 ± 0.95 h
22 | O=C1c2cccc(O)c2C(=O)c2c(O)cc(CO)cc21 [P17, Aloe-emodin] | 1.73 h
23 | CCCCCCCCCCCCCCCCOC[C@@H](O)COP(=O)([O-])OCC[N+](C)(C)C [P44, 1-O-Hexadecyl-sn-glycero-3-phosphocholine] | 33.1 ± 13.3 h

Next, values leading:

Row | half-life | Structure (SMILES)
24 | 4.77 ± 1.43 h | COc1cc2ccc(=O)oc2cc1O [P38, Scopoletin]
25 | 24.7 ± 23.6 h | O=C(O)CC(O)(CC(=O)O)C(=O)O [P40, Citric acid]
26 | 3.45 ± 1.44 h | COc1c(O)c(C)cc2c1C(=O)c1ccc(O)cc1C2=O [P21, 2,6-Dihydroxy-1-methoxy-3-methylanthraquinone]
27 | 24.2 ± 14.5 h | C[N+](C)(C)CC(=O)O [P35, Betaine]
28 | 2.7 ± 0.14 h | Cc1cc(=O)c2c(C)cc(O)cc2o1 [P1, 2,5-Dimethyl-7-hydroxychromone]
29 | 2.17 ± 0.12 h | Cc1cc(O)cc2oc(CC(C)O)cc(=O)c12 (centres unmarked) [P2, 7-Hydroxy-2-(2-hydroxypropyl)-5-methylchromen-4-one]
30 | 4.04 ± 1.91 h | COc1c(-c2ccccc2)oc2cc(O)cc(O)c2c1=O [P3, 3-Methoxy-5,7-dihydroxyflavone]

same assay, conditions: metabolites of ZJTSD in rat serum; mean±SD, n=3; in h

Row | MRT(0→t) | Tmax | t1/2 | Structure (SMILES)
31 | 5.35±0.92 | 3.00±1.73 |  | COC(=O)c1ccc(O)cc1 [M89]
32 | 7.25±1.46 | 1.08±0.88 | 7.50±1.85 | O=CCC(O)(CC(=O)O)C(=O)O (centres unmarked) [M90]
33 | 9.59±1.35 | 1.17±0.76 | 17.68±16.89 | OC1COCC1O (centres unmarked) [M87]
34 | 3.97±0.59 | 1.58±2.10 | 3.23±0.95 | O=C(O)/C=C/c1ccc(O)cc1 [M91]

same assay, conditions: prototype compounds of ZJTSD absorbed into rat serum; mean±SD, n=3; in h

Row | MRT(0→t) | t1/2 | Structure (SMILES)
35 | 3.96±0.32 | 3.76±1.03 | O=C1CCCn2c(CO)ccc21 [P34, Polygonatine A]

same assay, conditions: rat hepatic portal vein serum after oral ZJTSD twice a day for a week; semi-quantitative peak area ratio

Row | Tmax | Structure (SMILES)
36 | ≤ 3.5 h | O=CCC(O)(CC(=O)O)C(=O)O (centres unmarked) [M90]

same assay, conditions: rat hepatic portal vein serum after oral ZJTSD; semi-quantitative peak area ratio

Row | elimination half-life (t1/2) | Structure (SMILES)
37 | > 7.5 h | O=CCC(O)(CC(=O)O)C(=O)O (centres unmarked) [M90]

same assay, conditions: rat serum after oral ZJTSD

Row | time to peak (in words) | Structure (SMILES) | level of exposure in the blood (in words) | detection in serum / absorbed form
38 |  | COc1c(O)ccc2c1C(=O)c1ccccc1C2=O [P14, 2-Hydroxy-1-methoxyanthraquinone] | higher level of exposure | 
39 |  | O=C(O)C=Cc1ccc(O)cc1 [P37, p-Coumaric acid] | higher level of exposure | 
40 |  | O=C1c2cccc(O)c2C(=O)c2c(O)cc(CO)cc21 [P17, Aloe-emodin] |  | absorbed as prototype compounds
41 | faster time to peak | O=CCC(O)(CC(=O)O)C(=O)O (centres unmarked) [M90] |  | 
42 |  | Cc1cc(=O)c2c(C)cc(O)cc2o1 [P1, 2,5-Dimethyl-7-hydroxychromone] | higher level of exposure | 
43 |  | Cc1cc(O)cc2oc(CC(C)O)cc(=O)c12 (centres unmarked) [P2, 7-Hydroxy-2-(2-hydroxypropyl)-5-methylchromen-4-one] | higher level of exposure | 

same assay, conditions: rat serum after oral ZJTSD; non-compartmental analysis

Row | Structure (SMILES) | pharmacokinetic behavior compared with other prototype compounds and metabolites (in words)
44 | COc1c(O)ccc2c1C(=O)c1ccccc1C2=O [P14, 2-Hydroxy-1-methoxyanthraquinone] | better pharmacokinetic behavior
45 | O=C(O)C=Cc1ccc(O)cc1 [P37, p-Coumaric acid] | better pharmacokinetic behavior
46 | O=CCC(O)(CC(=O)O)C(=O)O (centres unmarked) [M90] | better pharmacokinetic behavior

Further lines, results first:

Row | pharmacokinetic behavior compared with other prototype compounds and metabolites (in words) | Structure (SMILES)
47 | better pharmacokinetic behavior | Cc1cc(=O)c2c(C)cc(O)cc2o1 [P1, 2,5-Dimethyl-7-hydroxychromone]
48 | better pharmacokinetic behavior | Cc1cc(O)cc2oc(CC(C)O)cc(=O)c12 (centres unmarked) [P2, 7-Hydroxy-2-(2-hydroxypropyl)-5-methylchromen-4-one]

same assay, conditions: rat serum after oral ZJTSD; peak area ratio versus time

Row | AUC (in words) | Structure (SMILES)
49 | largest | O=C(O)CC(O)(CC(=O)O)C(=O)O [P40, Citric acid]
50 | greater | O=CCC(O)(CC(=O)O)C(=O)O (centres unmarked) [M90]
